SMILES strings stand for the structures.

Our source for the IC50 values is BindingDB's records for patent WO2025049746 (Eikon Therapeutics, 2025).

Experiment [1] deals with Bifunctional 3'-5' exonuclease/ATP-dependent helicase WRN (Homo sapiens, UniProt Q14191). The experiment is described as follows: ADP-Glo Kinase Assay. The procedure: ATPase activity was measured using the ADP-Glo Kinase Assay following the manufacturers recommended protocol.
For orientation: ADP-Glo turns the ADP formed in a reaction into a luminescent signal.

The target of experiment [2] is T1, Bifunctional 3'-5' exonuclease/ATP-dependent helicase WRN [480-1251] (UniProt Q14191).
T1 construct: 480-1251
T1 sequence (Q14191 480-1251): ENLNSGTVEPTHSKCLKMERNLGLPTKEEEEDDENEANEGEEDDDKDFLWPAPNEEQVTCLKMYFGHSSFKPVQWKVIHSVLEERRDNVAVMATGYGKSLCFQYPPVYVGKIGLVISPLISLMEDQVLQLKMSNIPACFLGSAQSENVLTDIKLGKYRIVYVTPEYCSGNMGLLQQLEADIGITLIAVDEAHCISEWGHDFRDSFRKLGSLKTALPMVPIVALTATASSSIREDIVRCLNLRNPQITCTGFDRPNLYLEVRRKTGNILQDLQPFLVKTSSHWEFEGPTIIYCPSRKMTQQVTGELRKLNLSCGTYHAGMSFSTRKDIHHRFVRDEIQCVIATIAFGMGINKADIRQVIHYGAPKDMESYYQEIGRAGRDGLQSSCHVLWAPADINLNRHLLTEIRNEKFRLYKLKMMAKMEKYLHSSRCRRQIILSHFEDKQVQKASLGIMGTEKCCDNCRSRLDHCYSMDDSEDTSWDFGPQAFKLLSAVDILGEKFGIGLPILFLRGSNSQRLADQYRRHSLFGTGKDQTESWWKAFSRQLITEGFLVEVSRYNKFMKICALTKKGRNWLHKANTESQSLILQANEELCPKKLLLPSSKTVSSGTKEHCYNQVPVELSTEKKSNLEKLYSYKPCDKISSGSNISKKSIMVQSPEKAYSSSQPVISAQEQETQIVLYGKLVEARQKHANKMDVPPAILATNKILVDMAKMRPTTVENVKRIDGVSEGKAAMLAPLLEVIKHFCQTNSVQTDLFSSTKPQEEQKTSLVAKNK
The experiment in a line: Biochemical Activity Assays. The procedure:
The pure fractions were pooled and desalted/buffer exchanged into storage buffer using a HiTrap desalting column. […] First, WRN alone was pre-incubated with DMSO or compound of interest for 15 minutes. To initiate the reaction, ATP, dsDNA substrate, and ssDNA competitor (ssDNA_comp: […]) were added and incubated at room temperature for 20 minutes at which point DNA unwinding activity was monitored by measuring Cy3 fluorescence. After obtaining the reading, the ATPase activity was measured using the ADP-Glo Kinase Assay following the manufacturers recommended protocol. […] Compounds were assayed in a 10-point dose response in duplicate at a 1% DMSO final assay concentration.

Sequence of Bifunctional 3'-5' exonuclease/ATP-dependent helicase WRN (Q14191 whole entry): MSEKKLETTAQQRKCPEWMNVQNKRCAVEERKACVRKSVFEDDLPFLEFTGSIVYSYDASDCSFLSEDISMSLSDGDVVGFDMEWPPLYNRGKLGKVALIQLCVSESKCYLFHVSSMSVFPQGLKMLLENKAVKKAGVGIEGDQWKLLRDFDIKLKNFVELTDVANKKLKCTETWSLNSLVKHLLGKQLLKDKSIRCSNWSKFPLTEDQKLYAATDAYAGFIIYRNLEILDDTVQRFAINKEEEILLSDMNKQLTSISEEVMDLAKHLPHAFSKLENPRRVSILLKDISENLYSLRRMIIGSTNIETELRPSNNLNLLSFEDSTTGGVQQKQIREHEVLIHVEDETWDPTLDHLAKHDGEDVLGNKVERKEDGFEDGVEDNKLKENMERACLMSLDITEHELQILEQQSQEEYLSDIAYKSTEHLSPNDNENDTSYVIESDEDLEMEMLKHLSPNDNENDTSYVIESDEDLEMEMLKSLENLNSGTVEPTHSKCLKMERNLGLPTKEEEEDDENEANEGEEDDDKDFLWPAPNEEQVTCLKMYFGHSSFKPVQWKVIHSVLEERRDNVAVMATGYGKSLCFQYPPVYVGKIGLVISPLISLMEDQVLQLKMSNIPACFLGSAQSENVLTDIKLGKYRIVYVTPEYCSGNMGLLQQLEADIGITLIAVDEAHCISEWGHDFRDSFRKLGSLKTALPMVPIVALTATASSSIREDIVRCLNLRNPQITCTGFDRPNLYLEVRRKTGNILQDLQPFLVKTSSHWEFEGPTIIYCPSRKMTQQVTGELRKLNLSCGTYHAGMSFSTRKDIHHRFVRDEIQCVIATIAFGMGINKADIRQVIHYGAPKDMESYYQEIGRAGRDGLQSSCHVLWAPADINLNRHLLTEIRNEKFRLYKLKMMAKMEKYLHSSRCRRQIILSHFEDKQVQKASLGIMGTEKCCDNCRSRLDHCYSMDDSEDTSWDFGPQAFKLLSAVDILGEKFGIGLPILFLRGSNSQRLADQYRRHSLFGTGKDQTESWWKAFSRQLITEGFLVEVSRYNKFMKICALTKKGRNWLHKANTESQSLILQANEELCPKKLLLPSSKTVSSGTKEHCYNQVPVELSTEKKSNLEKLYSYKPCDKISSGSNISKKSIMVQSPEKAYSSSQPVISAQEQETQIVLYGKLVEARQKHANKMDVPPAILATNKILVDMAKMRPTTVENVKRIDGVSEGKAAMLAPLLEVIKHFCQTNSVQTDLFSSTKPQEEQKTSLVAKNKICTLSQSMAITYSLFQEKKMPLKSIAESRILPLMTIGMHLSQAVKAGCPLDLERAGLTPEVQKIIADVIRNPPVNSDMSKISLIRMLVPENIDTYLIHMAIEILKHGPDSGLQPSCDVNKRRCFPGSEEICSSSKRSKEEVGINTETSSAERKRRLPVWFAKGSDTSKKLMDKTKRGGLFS

Broadly, the IC50 is the concentration needed to halve the response being measured. As for `CCc1c(N2CCN(C(=O)c3ncnc(C)c3O)CC2)c(=O)n2nc(N(C)C)nc2n1C(F)(F)C(=O)Nc1ccc(C(F)(F)F)cc1Cl` [WO2025049746, Example 401], the IC50 was determined as 59 nM in experiment [1] and 45 nM in experiment [2].
For the compound `CCc1c(N2CCN(C(=O)c3ncnc(C)c3O)CC2)c(=O)n2nc(-c3ccn4ncc(F)c4c3)nc2n1CC(=O)Nc1ccc(C(F)(F)F)cc1Cl` [WO2025049746, Example 326], the results for the IC50 in experiment [1] and in experiment [2] were 24 nM and 26 nM, respectively.
Regarding `CCc1c(N2CCN(C(=O)c3ncnc(C)c3O)CC2)c(=O)n2nc(-c3ccc4c(c3)C[C@H](OC)C4)nc2n1CC(=O)Nc1ccc(C(F)(F)F)cc1Cl` [WO2025049746, Example 181], the IC50 in experiment [1] is 38 nM; in experiment [2], 33 nM.
For the compound `CCc1c(N2CCN(C(=O)c3ncnc(C)c3O)CC2)c(=O)n2nc(-c3cccc4c3COC(C)(C)C4)nc2n1CC(=O)Nc1ccc(C(F)(F)F)cc1Cl` [WO2025049746, Example 223], the results for the IC50 in experiment [1] and in experiment [2] were 3830 nM and 1550 nM, respectively.
Take `CCc1c(N2CCN(C(=O)c3ccccc3NS(=O)(=O)C3CC3)CC2)c(=O)n2nc(N(C)C)nc2n1CC(=O)Nc1ccc(C(F)(F)F)c2c1CC2` [WO2025049746, Example 105]: the results for the 50% inhibitory concentration (IC50) in experiment [1] and in experiment [2] were 281 nM and 264 nM, respectively.
Consider `CCc1c(N2CCN(C(=O)c3ncnc(C)c3O)CC2)c(=O)n2nc(-c3ccc4c(c3)CC(F)(F)C4)nc2n1CC(=O)Nc1ccc(C(F)(F)F)cc1Cl` [WO2025049746, Example 224], for which the concentration for half-maximal inhibition (IC50) in experiment [1] and in experiment [2] was 47 nM throughout.
Regarding `CCc1c(N2CCN(C(=O)c3ncnc(C)c3O)CC2)c(=O)n2nc(-c3ccc4oc(C)nc4c3)nc2n1CC(=O)Nc1ccc(C(F)(F)F)cc1Cl` [WO2025049746, Example 21], the IC50 in experiment [1] was found to be 44.8 nM; in experiment [2], 38.5 nM.
Turning to `CCc1c(N2CCN(C(=O)Cn3cncn3)CC2)c(=O)n2nc(C3=CCOCC3)nc2n1CC(=O)Nc1ccc(C(F)(F)F)cc1Cl` [WO2025049746, Example 61], the half-maximal inhibitory concentration (IC50) is 125 nM in experiment [1] and 66.7 nM in experiment [2].
As to `CCc1c(N2CCN(C(=O)c3nc4c(cc3O)OCCC4)CC2)c(=O)n2nc(-c3ccc4c(c3)COC4)nc2n1CC(=O)Nc1ccc(C(F)(F)F)cc1Cl` [WO2025049746, Example 432], the half-inhibitory concentration (IC50) is 88 nM in experiment [1] and 75 nM in experiment [2].
For `CCc1c(N2CCN(C(=O)c3ncnc(C)c3O)CC2)c(=O)n2nc(-c3cc4cn(C(F)F)nc4cc3F)nc2n1CC(=O)Nc1ccc(C(F)(F)F)cc1Cl` [WO2025049746, Example 291], the IC50 was 30 nM in experiment [1] and 31 nM in experiment [2].
For `CCc1c(N2CCN(C(=O)c3ccccc3NS(=O)(=O)C3CC3)CC2)c(=O)n2nc(-c3ccc4c(c3)OCO4)nc2n1CC(=O)Nc1ccc(C(F)(F)F)cc1Cl` [WO2025049746, Example 87], in that order: 159 nM and 138 nM.
For `CCc1c(N2CCN(C(=O)c3ncnc(C)c3O)CC2)c(=O)n2nc(-c3ccc4c(c3)OCCO4)nc2n1CC(=O)Nc1ccc(C(F)(F)F)cc1Cl` [WO2025049746, Example 1], in that order: 23.6 nM and 20.7 nM.
For `CCc1c(N2CCN(C(=O)c3ncnc(C)c3O)CC2)c(=O)n2nc(N(C)C)nc2n1CC(=O)Nc1c(Cl)cc(C(F)(F)F)c2c1CC2` [WO2025049746, Example 387], in that order: 41 nM and 32 nM.
On to `CCc1c(N2CCN(C(=O)c3ncnc(C)c3O)CC2)c(=O)n2nc(-c3cccc4c3OCO4)nc2n1CC(=O)Nc1ccc(C(F)(F)F)cc1Cl` [WO2025049746, Example 16], for which the IC50 in experiment [1] came to 24.9 nM; in experiment [2], 22.4 nM.
Turning to `CCc1c(N2CCN(C(=O)c3ncnc(C)c3O)CC2)cn2nc(C3=CCOCC3)nc2c1CC(=O)Nc1ccc(C(F)(F)F)cc1Cl` [WO2025049746, Example 374], the IC50 in experiment [1] and in experiment [2] was 29700 nM each time.
For `CCc1c(N2CCN(C(=O)c3ncnc(C)c3O)CC2)c(=O)n2nc(-c3ccc4c(c3)N(C)C(=O)CO4)nc2n1CC(=O)Nc1ccc(C(F)(F)F)cc1Cl` [WO2025049746, Example 198], the IC50 is 48 nM in experiment [1] and 33 nM in experiment [2].
With `CCc1c(N2CCN(C(=O)c3ncccc3N=S3(=O)CCC3)CC2)c(=O)n2nc(C3=CCOCC3)nc2n1CC(=O)Nc1ccc(C(F)(F)F)cc1Cl` [WO2025049746, Example 37], the IC50 worked out at 86.3 nM in experiment [1] and 56.2 nM in experiment [2].
For `CCc1c(N2CCN(C(=O)c3cc(C)c(O)cc3O)CC2)c(=O)n2nc(-c3ccc4c(c3)COC4)nc2n1CC(=O)Nc1ccc(C(F)(F)F)cc1Cl` [WO2025049746, Example 413], the IC50 in experiment [1] was found to be 386 nM; in experiment [2], 303 nM.
For `CCc1c(N2CCN(C(=O)c3cccc4c3ncn4C)CC2)c(=O)n2nc(C3=CCOCC3)nc2n1CC(=O)Nc1ccc(C(F)(F)F)cc1Cl` [WO2025049746, Example 44], in that order: 83.9 nM and 51.7 nM.
Turning to `CCc1c(N2CCN(C(=O)c3ncnc(C)c3O)CC2)c(=O)n2nc(-c3ccc4c(c3)C(F)(F)CC4)nc2n1CC(=O)Nc1ccc(C(F)(F)F)cc1Cl` [WO2025049746, Example 178], the figures for the IC50 in experiment [1] and in experiment [2] were 42 nM and 39 nM, respectively.
In the case of `CCc1c(N2CCN(C(=O)c3ncnc(C)c3O)CC2)c(=O)n2nc(-c3ccc4c(c3)COC4)nc2n1CC(=O)Nc1c(Cl)cc(C(F)(F)F)c2scnc12` [WO2025049746, Example 424], the IC50 in experiment [1] stood at 47 nM; in experiment [2], 37 nM.
With `CCc1c(N2CCN(C(=O)c3ncnc(C)c3O)CC2)c(=O)n2nc(-c3ccc4nn(C(C)C)cc4c3)nc2n1CC(=O)Nc1ccc(C(F)(F)F)cc1Cl` [WO2025049746, Example 262], the IC50 was 30 nM in experiment [1] and 31 nM in experiment [2].
On to `CCc1c(N2CCN(C(=O)c3ncnc(C)c3O)CC2)c(=O)n2nc(-c3ccc4c(c3)OCO4)nc2n1CC(=O)Nc1c(Cl)cc(C(F)(F)F)c2c1CC2` [WO2025049746, Example 380], for which the half-maximal inhibitory concentration (IC50) in experiment [1] was determined as 61 nM; in experiment [2], 44 nM.
As to `CCc1c(N2CCN(C(=O)c3ncnc(C)c3O)CC2)c(=O)n2nc(-c3ccc4c(c3)OC(F)(F)O4)nc2n1CC(=O)Nc1ccc(C(F)(F)F)cc1Cl` [WO2025049746, Example 179], the IC50 in experiment [1] was 77 nM; in experiment [2], 59 nM.
`CCc1c(N2CCN(C(=O)c3ncnc(C)c3O)CC2)c(=O)n2nc(-c3cccc4c3OCCO4)nc2n1CC(=O)Nc1ccc(SC(F)(F)F)cc1` [WO2025049746, Example 411]: the IC50 turned out to be 420 nM in experiment [1] and 232 nM in experiment [2].
Regarding `CCc1c(N2CCN(C(=O)c3ncnc(C)c3O)CC2)c(=O)n2nc(-c3ccc4c(c3)CCO[C@@H]4C)nc2n1CC(=O)Nc1ccc(C(F)(F)F)cc1Cl` [WO2025049746, Example 228], the IC50 is 32 nM in experiment [1] and 28 nM in experiment [2].
Take `CCc1c(N2CCN(C(=O)c3ncnc(C)c3O)CC2)c(=O)n2nc(C3=CCOCC3)nc2n1CC(=O)Nc1ccc(SC(F)(F)F)cc1` [WO2025049746, Example 356]: the IC50 in experiment [1] came to 875 nM; in experiment [2], 634 nM.
With `CCc1c(N2CCN(C(=O)c3ncnc(C)c3O)CC2)c(=O)n2nc(-c3ccc4c(c3)CCO4)nc2n1CC(=O)Nc1ccc(C(F)(F)F)cc1Cl` [WO2025049746, Example 11], the IC50 turned out to be 27.3 nM in experiment [1] and 24.6 nM in experiment [2].
As to `CCc1c(N2CCN(C(=O)c3ncnc(C)c3O)CC2)c(=O)n2nc(C3=CCOCC3)nc2n1CC(=O)NC1CC2(C1)CC(F)(F)C2` [WO2025049746, Example 357], the IC50 in experiment [1] is 4820 nM; in experiment [2], 5200 nM.
For `CCc1c(N2CCN(C(=O)c3ncnc(C)c3O)CC2)c(=O)n2nc(-c3ccc4c(c3)C[C@H](C)O4)nc2n1CC(=O)Nc1ccc(C(F)(F)F)cc1Cl` [WO2025049746, Example 230], the IC50 in experiment [1] was found to be 39 nM; in experiment [2], 45 nM.
On the same counts, the results for `CCc1c(N2CCN(C(=O)c3ncnc(C)c3O)CC2)c(=O)n2nc(-c3ccn4ncnc4c3)nc2n1CC(=O)Nc1ccc(C(F)(F)F)cc1Cl` [WO2025049746, Example 220] are 111 nM and 96 nM.
For `CCc1c(N2CCN(C(=O)c3ncnc(C)c3O)CC2)c(=O)n2nc(-c3ccc4c(c3)C(C)(C)OC4)nc2n1CC(=O)Nc1ccc(C(F)(F)F)cc1Cl` [WO2025049746, Example 165], in that order: 53 nM and 42 nM.
For the compound `CCc1c(N2CCN(C(=O)c3ncnc(C)c3O)CC2)c(=O)n2nc(-c3ccc4c(c3)COC4)nc2n1CC(=O)Nc1c(Cl)cc(C(F)(F)F)c2c1OCC2` [WO2025049746, Example 442], the IC50 is 54 nM in experiment [1] and 67 nM in experiment [2].
As to `CCc1c(N2CCN(C(=O)c3ncnc(C)c3O)CC2)c(=O)n2nc(-c3ccn4cncc4c3)nc2n1CC(=O)Nc1ccc(C(F)(F)F)cc1Cl` [WO2025049746, Example 219], the IC50 in experiment [1] and in experiment [2] was 19 nM each time.
Consider `CCc1c(N2CCN(C(=O)c3nc4c(cc3O)CCOC4)CC2)c(=O)n2nc(-c3ccc4c(c3)COC4(C)C)nc2n1CC(=O)Nc1ccc(C(F)(F)F)cc1Cl` [WO2025049746, Example 463], for which the IC50 came to 70.5 nM in experiment [1] and 84.8 nM in experiment [2].
On to `CCc1c(N2CCN(C(=O)c3ncnc(N4CC(F)(F)C4)c3O)CC2)c(=O)n2nc(-c3ccc4c(c3)COC4)nc2n1CC(=O)Nc1ccc(C(F)(F)F)cc1Cl` [WO2025049746, Example 412], for which the IC50 in experiment [1] stood at 37 nM; in experiment [2], 29 nM.
With `CCc1c(N2CCN(C(=O)c3ncnc(C)c3O)CC2)c(=O)n2nc(-c3cncc4c3COCC4)nc2n1CC(=O)Nc1ccc(C(F)(F)F)cc1Cl` [WO2025049746, Example 161], the IC50 came to 524 nM in experiment [1] and 84 nM in experiment [2].
